In general, IC50 refers to the midpoint of a concentration-inhibition curve.

Recombinant human IDO, sequence (P14902 whole entry): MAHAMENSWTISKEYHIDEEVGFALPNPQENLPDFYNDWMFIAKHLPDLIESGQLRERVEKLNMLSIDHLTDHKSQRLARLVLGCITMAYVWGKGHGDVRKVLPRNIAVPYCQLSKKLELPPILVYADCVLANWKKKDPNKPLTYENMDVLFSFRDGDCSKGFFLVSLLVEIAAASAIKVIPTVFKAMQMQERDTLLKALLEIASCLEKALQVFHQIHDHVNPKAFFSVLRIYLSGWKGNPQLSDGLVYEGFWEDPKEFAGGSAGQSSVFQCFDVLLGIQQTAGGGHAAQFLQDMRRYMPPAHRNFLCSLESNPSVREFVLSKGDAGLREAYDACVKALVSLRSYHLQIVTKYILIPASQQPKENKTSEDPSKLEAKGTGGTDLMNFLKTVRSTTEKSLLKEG

The assay addresses Recombinant human IDO (Homo sapiens, UniProt P14902). Kind of assay: Bridge-IT tryptophan fluorescence assay of human IDO-1 inhibition. It counts as biochemical. Conditions: recombinant human IDO 7.5 nM, L-tryptophan. The essentials: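 Two protocol variants: 100 μM L-Trp for 90 min at 37 °C, or 30 min enzyme–compound pre-incubation at 25 °C, then 50 μM L-Trp for 60 min at 25 °C. Reaction stopped in Bridge-IT solution A for 30 min at 30 °C.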
With `CN(C)C(=O)C1CCC(F)(CCC2c3c(Cl)cccc3-c3cncn32)CC1` (single isomer, unassigned) [Compound 114c, 4-[2-[6-chloro-5H-imidazo[4,3-a]isoindol-5-yl]ethyl]-4-fluoro-N,N-dimethylcyclohexane-1-carboxamide], the IC50 is greater than 1 µM.
For `CN(C)C(=O)C1CCC(F)(CCC2c3c(Cl)cccc3-c3cncn32)CC1` (single isomer, unassigned) [Compound 114d, 4-[2-[6-chloro-5H-imidazo[4,3-a]isoindol-5-yl]ethyl]-4-fluoro-N,N-dimethylcyclohexane-1-carboxamide] the value was greater than 1 µM; for `O=C(C1CCC(F)(CCC2c3c(Cl)cccc3-c3cncn32)CC1)N1CCCCC1` (single isomer, unassigned) [Compound 115a], less than 0.1 µM.
For the compound `O=C(C1CCC(F)(CCC2c3c(Cl)cccc3-c3cncn32)CC1)N1CCCCC1` (single isomer, unassigned) [Compound 115b], the IC50 was less than 0.1 µM.
For `O=C(C1CCC(F)(CCC2c3c(Cl)cccc3-c3cncn32)CC1)N1CCCCC1` (single isomer, unassigned) [Compound 115c] the value was 0.1 to 1 µM; for `O=C(C1CCC(F)(CCC2c3c(Cl)cccc3-c3cncn32)CC1)N1CCCCC1` (single isomer, unassigned) [Compound 115d], greater than 1 µM; for `NC(=O)CC1CCC(F)(CCC2c3c(F)cccc3-c3cncn32)CC1` (single isomer, unassigned) [Compound 116a, 2-[4-Fluoro-4-[2-[6-fluoro-5H-imidazo[4,3-a]isoindol-5-yl]ethyl]cyclohexyl]acetamide], greater than 1 µM.
`NC(=O)CC1CCC(F)(CCC2c3c(F)cccc3-c3cncn32)CC1` (single isomer, unassigned) [Compound 116b, 2-[4-Fluoro-4-[2-[6-fluoro-5H-imidazo[4,3-a]isoindol-5-yl]ethyl]cyclohexyl]acetamide]: the IC50 is less than 0.1 µM.
On to `NC(=O)CC1CCC(F)(CCC2c3c(F)cccc3-c3cncn32)CC1` (single isomer, unassigned) [Compound 116c, 2-[4-Fluoro-4-[2-[6-fluoro-5H-imidazo[4,3-a]isoindol-5-yl]ethyl]cyclohexyl]acetamide], for which the IC50 is greater than 1 µM.
Turning to `NC(=O)CC1CCC(F)(CCC2c3c(F)cccc3-c3cncn32)CC1` (single isomer, unassigned) [Compound 116d, 2-[4-Fluoro-4-[2-[6-fluoro-5H-imidazo[4,3-a]isoindol-5-yl]ethyl]cyclohexyl]acetamide], the half-maximal inhibitory concentration (IC50) was less than 0.1 µM.
The same measure for `OC(CC1c2ncccc2-c2cncn21)C1CCC(C2(O)CC2)CC1` (single isomer, unassigned) [Compound 117a, 1-[4-[1-hydroxy-2-[4,6,9-triazatricyclo[6.4.0.0^[2,6]]dodeca-1(8),2,4,9,11-pentaen-7-yl]ethyl]cyclohexyl]cyclopropan-1-ol]: greater than 1 µM; for `OC(CC1c2ncccc2-c2cncn21)C1CCC(C2(O)CC2)CC1` (single isomer, unassigned) [Compound 117b, 1-[4-[1-hydroxy-2-[4,6,9-triazatricyclo[6.4.0.0^[2,6]]dodeca-1(8),2,4,9,11-pentaen-7-yl]ethyl]cyclohexyl]cyclopropan-1-ol]: 0.1 to 1 µM.
For `OC(CC1c2ncccc2-c2cncn21)C1CCC(C2(O)CC2)CC1` (single isomer, unassigned) [Compound 117c, 1-[4-[1-hydroxy-2-[4,6,9-triazatricyclo[6.4.0.0^[2,6]]dodeca-1(8),2,4,9,11-pentaen-7-yl]ethyl]cyclohexyl]cyclopropan-1-ol], the IC50 was greater than 1 µM.
For `OC(CC1c2ncccc2-c2cncn21)C1CCC(C2(O)CC2)CC1` (single isomer, unassigned) [Compound 117d, 1-[4-[1-hydroxy-2-[4,6,9-triazatricyclo[6.4.0.0^[2,6]]dodeca-1(8),2,4,9,11-pentaen-7-yl]ethyl]cyclohexyl]cyclopropan-1-ol] the value was greater than 1 µM; for `COc1ccc2c(n1)C(CC(N)C1CCCCC1)n1cncc1-2` (single isomer, unassigned) [Compound 118b, 1-cyclohexyl-2-[10-methoxy-4,6,9-triazatricyclo[6.4.0.0^[2,6]]dodeca-1(8),2,4,9,11-pentaen-7-yl]ethan-1-amine], 0.1 to 1 µM.
On to `COc1ccc2c(n1)C(CC(N)C1CCCCC1)n1cncc1-2` (single isomer, unassigned) [Compound 118c, 1-cyclohexyl-2-[10-methoxy-4,6,9-triazatricyclo[6.4.0.0^[2,6]]dodeca-1(8),2,4,9,11-pentaen-7-yl]ethan-1-amine], for which the IC50 was greater than 1 µM.
With `COc1ccc2c(n1)C(CC(N)C1CCC(C)(C)CC1)n1cncc1-2` (single isomer, unassigned) [Compound 119a, 1-(4,4-dimethylcyclohexyl)-2-[10-methoxy-4,6,9-triazatricyclo[6.4.0.0^[2,6]]dodeca-1(8),2,4,9,11-pentaen-7-yl]ethan-1-amine], the IC50 was greater than 1 µM.
As for `COc1ccc2c(n1)C(CC(N)C1CCC(C)(C)CC1)n1cncc1-2` (single isomer, unassigned) [Compound 119b, 1-(4,4-dimethylcyclohexyl)-2-[10-methoxy-4,6,9-triazatricyclo[6.4.0.0^[2,6]]dodeca-1(8),2,4,9,11-pentaen-7-yl]ethan-1-amine], the IC50 was greater than 1 µM.
The same measure for `COc1ccc2c(n1)C(CC(N)C1CCC(C)(C)CC1)n1cncc1-2` (single isomer, unassigned) [Compound 119c, 1-(4,4-dimethylcyclohexyl)-2-[10-methoxy-4,6,9-triazatricyclo[6.4.0.0^[2,6]]dodeca-1(8),2,4,9,11-pentaen-7-yl]ethan-1-amine]: 0.1 to 1 µM.
Regarding `COc1ccc2c(n1)C(CC(N)C1CCC(C)(C)CC1)n1cncc1-2` (single isomer, unassigned) [Compound 119d, 1-(4,4-dimethylcyclohexyl)-2-[10-methoxy-4,6,9-triazatricyclo[6.4.0.0^[2,6]]dodeca-1(8),2,4,9,11-pentaen-7-yl]ethan-1-amine], the IC50 was greater than 1 µM.
For `COc1ccc2c(n1)C(CC(N)C1CCC(F)(F)CC1)n1cncc1-2` (single isomer, unassigned) [Compound 120a, 1-(4,4-difluorocyclohexyl)-2-[10-methoxy-4,6,9-triazatricyclo[6.4.0.0^[2,6]]dodeca-1(8),2,4,9,11-pentaen-7-yl]ethan-1-amine] the value was greater than 1 µM; for `COc1ccc2c(n1)C(CC(N)C1CCC(F)(F)CC1)n1cncc1-2` (single isomer, unassigned) [Compound 120b, 1-(4,4-difluorocyclohexyl)-2-[10-methoxy-4,6,9-triazatricyclo[6.4.0.0^[2,6]]dodeca-1(8),2,4,9,11-pentaen-7-yl]ethan-1-amine], greater than 1 µM.
Turning to `COc1ccc2c(n1)C(CC(N)C1CCC(F)(F)CC1)n1cncc1-2` (single isomer, unassigned) [Compound 120c, 1-(4,4-difluorocyclohexyl)-2-[10-methoxy-4,6,9-triazatricyclo[6.4.0.0^[2,6]]dodeca-1(8),2,4,9,11-pentaen-7-yl]ethan-1-amine], the IC50 is 0.1 to 1 µM.
For `COc1ccc2c(n1)C(CC(N)C1CCC(F)(F)CC1)n1cncc1-2` (single isomer, unassigned) [Compound 120d, 1-(4,4-difluorocyclohexyl)-2-[10-methoxy-4,6,9-triazatricyclo[6.4.0.0^[2,6]]dodeca-1(8),2,4,9,11-pentaen-7-yl]ethan-1-amine] the value was greater than 1 µM; for `NS(=O)(=O)C1CCC(F)(CCC2c3ccccc3-c3cncn32)CC1` (single isomer, unassigned) [Compound 121a, 4-fluoro-4-[2-[5H-imidazo[4,3-a]isoindol-5-yl]ethyl]cyclohexane-1-sulfonamide], less than 0.1 µM.
The same measure for `NS(=O)(=O)C1CCC(F)(CCC2c3ccccc3-c3cncn32)CC1` (single isomer, unassigned) [Compound 121b, 4-fluoro-4-[2-[5H-imidazo[4,3-a]isoindol-5-yl]ethyl]cyclohexane-1-sulfonamide]: greater than 1 µM; for `NS(=O)(=O)C1CCC(F)(CCC2c3ccccc3-c3cncn32)CC1` (single isomer, unassigned) [Compound 121c, 4-fluoro-4-[2-[5H-imidazo[4,3-a]isoindol-5-yl]ethyl]cyclohexane-1-sulfonamide]: greater than 1 µM; for `NS(=O)(=O)C1CCC(F)(CCC2c3ccccc3-c3cncn32)CC1` (single isomer, unassigned) [Compound 121d, 4-fluoro-4-[2-[5H-imidazo[4,3-a]isoindol-5-yl]ethyl]cyclohexane-1-sulfonamide]: less than 0.1 µM.
On to `OC(CC1c2c(ccnc2F)-c2cncn21)C1CCCCC1` (stereo not drawn) [Compound 2a, 1-Cyclohexyl-2-[9-fluoro-4,6,10-triazatricyclo[6.4.0.0^[2,6]]dodeca-1(8),2,4,9,11-pentaen-7-yl]ethan-1-ol], for which the IC50 was greater than 1 µM.
For `OC(CC1c2c(F)cncc2-c2cncn21)C1CCCCC1` (stereo not drawn) [Compound 3a, 1-cyclohexyl-2-[9-fluoro-4,6,11-triazatricyclo[6.4.0.0^[2,6]]dodeca-1(8),2,4,9,11-pentaen-7-yl]ethan-1-ol] the value was greater than 1 µM; for `OC1CCC(C(O)CC2c3ncccc3-c3cncn32)CC1` (stereo not drawn) [Compound 6a, 4-[1-hydroxy-2-[4,6,9-triazatricyclo[6.4.0.0^[2,6]]dodeca-1(8),2,4,9,11-pentaen-7-yl]ethyl]cyclohexan-1-ol], greater than 1 µM; for `OC(CC1c2cnccc2-c2cncn21)C1CCCCC1` (stereo not drawn) [Compound 9a, 1-Cyclohexyl-2-[4,6,10-triazatricyclo[6.4.0.0^[2,6]]dodeca-1(8),2,4,9,11-pentaen-7-yl]ethan-1-ol], greater than 1 µM.
For `COc1cc2c(cn1)-c1cncn1C2CC(O)C1CCCCC1` (stereo not drawn) [Compound 11b, 1-cyclohexyl-2-[10-methoxy-4,6,11-triazatricyclo[6.4.0.0^[2,6]]dodeca-1(8),2,4,9,11-pentaen-7-yl]ethan-1-ol] the value was greater than 1 µM.

The record behind these values is patent publication US9771370B2, “Compounds for the inhibition of indoleamine-2,3-dioxygenase” (Merck Patent GmbH, priority 2014, dated 2017).
